This note sets out measurements from ChEMBL document CHEMBL1156743, “Design, synthesis, and biological evaluations of 2,5-diaryl-2,3-dihydro-1,3,4-oxadiazoline analogs of combretastatin-A4” (J Med Chem, 2010).

One series has as its system L1210. Description: Antiproliferative activity against mouse L1210 cells after 72 hrs by MTT assay. In kind it is functional, cell-based. Particulars: L1210, 72 h.
The subject of series [1] is MDA-MB-435. Kind of series: Ratio of EC50 for rat A10 cells to IC50 for human MDA-MB-435 cells. In kind it is functional.
Series [2] has as its system MDA-MB-435. Description: Antiproliferative activity against human MDA-MB-435 cells after 48 hrs by SRB assay. The series is classed as functional, cell-based. Particulars: MDA-MB-435, 48 h.
Series [3] has as its system A10. Kind of series: Antiproliferative activity against rat A10 cells assessed as microtubule depolymerization after 18 to 24 hrs by indirect immunofluorescence technique. The series is classed as functional, cell-based.
Series [4] in a line: Relative aqueous solubility at pH 7.4 by filter plate assay. In kind it is physicochemical. Particulars: buffer.
Series [5] is described as follows: Antiproliferative activity against mouse B16F0 cells after 72 hrs by MTT assay. The series is classed as functional.
Series [6] concerns SK-OV-3. Kind of series: Antiproliferative activity against human SKOV3 cells after 48 hrs by SRB assay. In kind it is functional, cell-based. To be noted: SK-OV-3, 48 h.
The test system of series [7] is MDA-MB-435. Description: Cell cycle arrest in human MDA-MB-435 cells assessed as accumulation at G2/M phase at 0.5 uM after 18 hrs by flow cytometry. The series is classed as functional, cell-based.
Series [8] has as its system HeLa. Kind of series: cells. To be noted: Homo sapiens, 48 h.
Description: Antiproliferative activity against human HeLa cells after 48 hrs by SRB assay
Series [9] relates to HeLa. Description: Antimitotic activity in human HeLa cells assessed as gamma-tubulin containing centrosomes at 0.5 uM after 18 hrs by indirect immunofluorescence technique. In kind it is functional, cell-based.
Series [10] concerns HeLa. Description: Antimitotic activity in human HeLa cells assessed as multipolar mitotic spindles at 0.5 uM after 18 hrs by indirect immunofluorescence technique. The series is classed as functional, cell-based.
The subject of series [11] is A10. Description: Antiproliferative activity against rat A10 cells assessed as microtubule depolymerization at 1 uM after 18 hrs by indirect immunofluorescence technique. The series is classed as functional, cell-based.
The subject of series [12] is HeLa. Kind of series: Antimitotic activity in human HeLa cells assessed as effect on DNA at 0.5 uM after 18 hrs by indirect immunofluorescence technique. The series is classed as functional, cell-based.
The test system of series [13] is HeLa. Description: Antiproliferative activity against human HeLa cells expressing wild type beta3 tubulin after 48 hrs by SRB assay. In kind it is functional, cell-based.
In series [14] the test system is SK-OV-3. Kind of series: Antiproliferative activity against human SKOV3 cells expressing adenoviral MDR1 after 48 hrs by SRB assay. Particulars: SK-OV-3, 48 h. The series is classed as functional, cell-based.

Molecules are shown by their SMILES. ≈ marks a conversion by molar mass, not a printed value. Calls of active or inactive are those of the source. The calls are words filed in the database; no cut-off is given here. Where only a bound is given, the exact number is not on record here.

As to `COc1ccc(C2=NN(C(C)=O)C(c3ccc([N+](=O)[O-])cc3)O2)cc1` (stereo unspecified), half-maximal inhibition with L1210 (IC50) required 68 µM. In other words, the double-digit micromolar range.

The compound `COc1ccc(C2=NN(C(C)=O)C(c3ccc(OC)c([N+](=O)[O-])c3)O2)cc1` (stereo unspecified) registered a 50% inhibitory concentration (IC50) with L1210 of more than 100 µM.

In turn, `COc1cccc(C2OC(c3cc(OC)c(OC)c(OC)c3)=NN2C(C)=O)c1` (stereo unspecified) gave a half-inhibitory concentration (IC50) in the series on L1210 of 45 µM. This lies in the double-digit micromolar range.

For the compound `COc1ccc(C2OC(c3cc(OC)c(OC)c(OC)c3)=NN2C(C)=O)cc1[N+](=O)[O-]` (stereo unspecified), half-maximal inhibition in the series on L1210 (IC50) required 58 µM.

Consider `COc1ccc(C2=NN(C(C)=O)C(c3cccc([N+](=O)[O-])c3)O2)cc1` (stereo unspecified), for which the concentration for half-maximal inhibition (IC50) in the series on L1210 was 47 µM.

On to `COc1ccc(C2=NN(C(C)=O)C(c3ccc(OC)cc3)O2)cc1` (stereo unspecified), for which the half-inhibitory concentration (IC50) in the series with L1210 is more than 100 µM.

As for `COc1ccccc1C1OC(c2cc(OC)c(OC)c(OC)c2)=NN1C(C)=O` (stereo unspecified), inhibition in the series with L1210 was half-maximal at 48 µM (IC50).

In the series on L1210, `COc1cc(C2=NN(C(C)=O)C(c3ccccc3)O2)cc(OC)c1OC` (stereo unspecified) showed an IC50 of 6.4 µM. Compared with the last compound, the IC50 is about 7.5-fold lower.

In the series with L1210, `COc1cc(C2=NN(C(C)=O)C(c3ccc([N+](=O)[O-])cc3)O2)cc(OC)c1OC` (stereo unspecified) displayed a half-maximal inhibitory concentration (IC50) of 4.2 µM.

Regarding `COc1ccc(C2OC(c3cc(OC)c(OC)c(OC)c3)=NN2C(C)=O)cc1` (stereo unspecified), the IC50 in the series on L1210 turned out to be 57 µM. Against the preceding compound, the IC50 is about 14-fold higher.

Take `COc1ccc(C2=NN(C(C)=O)C(c3cc(OC)cc(OC)c3)O2)cc1` (stereo unspecified): the Ratio in the series with MDA-MB-435 [1] was 9.1. For the same compound, the half-maximal inhibitory concentration (IC50) in the series on L1210 came out at 0.5 µM; in the series on MDA-MB-435 [2], 0.11 µM. Also, the half-maximal effective concentration (EC50) with A10 [3] is 1 µM. Also, the solubility in [4] turned out to be 94 µM (≈ 33.5 µg/mL).

For the compound `COc1ccc(C2=NN(C(C)=O)C(c3cccc(OC)c3)O2)cc1` (stereo unspecified), half-maximal inhibition in the series on L1210 (IC50) was put at 41 µM.

`COc1ccc(C2OC(c3cc(OC)c(OC)c(OC)c3)=NN2C(C)=O)cc1OC(C)=O` (stereo unspecified): in the series on MDA-MB-435 [1], the Ratio is given as 3.1. Moreover, the figures for the concentration for half-maximal inhibition (IC50) with L1210 and in the series on MDA-MB-435 [2] were 3.9 µM and 3.3 µM, respectively. In addition, the EC50 with A10 [3] came to 10.2 µM. Besides, the solubility in series [4] was 112 µM (≈ 49.8 µg/mL).

As to `COc1cc(C2=NN(C(C)=O)C(c3cccc(Br)c3)O2)cc(OC)c1OC` (stereo unspecified), the Ratio in the series on MDA-MB-435 [1] amounted to 10. Further, the figures for the IC50 in the series on L1210 and with MDA-MB-435 [2] were 0.6 µM and 0.15 µM, respectively. Besides, the EC50 with A10 [3] is 1.5 µM. For the same compound, the solubility in [4] was 66 µM (≈ 28.7 µg/mL).

Turning to `COc1cc(OC)cc(C2OC(c3cc(OC)c(OC)c(OC)c3)=NN2C(C)=O)c1` (stereo unspecified), in the series with L1210, the midpoint of inhibition, the IC50, lay at 5.9 µM.

Regarding `COc1ccc(OC)c(C2OC(c3cc(OC)c(OC)c(OC)c3)=NN2C(C)=O)c1` (stereo unspecified), the IC50 with L1210 came out at 55 µM.

Consider `COc1ccc(C2=NN(C(C)=O)C(c3cc(OC)ccc3OC)O2)cc1` (stereo unspecified), for which the Ratio in the series on MDA-MB-435 [1] came to 6.5. In addition, the IC50 in the series on L1210 was 0.5 µM; in the series on MDA-MB-435 [2] it was 0.2 µM. In addition, the concentration giving a half-maximal response (EC50) with A10 [3] amounted to 1.3 µM. In addition, the solubility in series [4] was 259 µM (≈ 92.3 µg/mL).

Turning to `COc1ccc(/C=C\c2cc(OC)c(OC)c(OC)c2)cc1O` [COMBRETASTATIN A4], the Activity in [5] worked out at 0.003 µM. In addition, the EC50 in the series with A10 [3] amounted to 0.007 µM. This compound also gave a solubility in [4] of 350 µM (≈ 111 µg/mL).

In the series on L1210, `COc1ccc(C2=NN(C(C)=O)C(c3ccc(OC)c(OC(C)=O)c3)O2)cc1` (stereo unspecified) had an IC50 of more than 100 µM.

Compound `COc1cc(C2=NN(C(C)=O)C(c3cc(OC)c(OC)c(OC)c3)O2)cc(OC)c1OC` (stereo unspecified) yielded an IC50 in the series on L1210 of more than 100 µM.

Take `COc1ccc(C2=NN(C(C)=O)C(c3cccc(Br)c3)O2)cc1` (stereo unspecified): the IC50 in the series with L1210 is 37 µM.

Turning to `COc1cc(C2=NN(C(C)=O)C(c3cccc([N+](=O)[O-])c3)O2)cc(OC)c1OC` (stereo unspecified), the IC50 in the series on L1210 turned out to be 39 µM.

`COc1ccc(C2=NN(C(C)=O)C(c3ccccc3)O2)cc1` (stereo unspecified): the IC50 in the series on L1210 is more than 100 µM.

Turning to `COc1ccc(C2=NN(C(C)=O)C(c3ccccc3OC)O2)cc1` (stereo unspecified), the IC50 in the series on L1210 was 5.8 µM. This counts as single-digit micromolar.

As for `COc1ccc(C2=NN(C(C)=O)C(c3cc(OC)c(OC)c(OC)c3)O2)cc1` (stereo unspecified), the IC50 in the series on SK-OV-3 [6] was 0.34 µM; in the series with HeLa [8] it was 0.23 µM; in the series with L1210, 0.5 µM; in the series with MDA-MB-435 [2], 0.14 µM; with HeLa [13], 0.27 µM; in the series with SK-OV-3 [14], 0.45 µM. Further, the result in the series with MDA-MB-435 [7], in the series with HeLa [9], with HeLa [10], with A10 [11] and with HeLa [12] was Active. The Ratio with MDA-MB-435 [1] came to 3.6. Also, the EC50 in the series with A10 [3] was 0.5 µM. This compound showed a solubility in [4] of 257 µM (≈ 99.3 µg/mL).
